Assay results from US20220184000A1, “USE OF CANNABIDIOL IN THE TREATMENT OF DRAVET SYNDROME” (priority 2019, published 2022).

How the values were obtained:
Assay type in all cases: in vivo
Scn1a^+/− mice [1] = test: Social interaction test, Study II; conditions: CBD 100 mg/kg s.c. twice daily
Experimental: (§1) Here, Scn1a^+/− were randomly divided into two groups and subcutaneously injected with either CBD (100 mg/kg twice daily; n=12) or its vehicle (ethanol:Kolliphor®:0.9% saline=2:1:17; n=29) from P8 onwards until P52 or death (whichever was earlier).
The social interaction test was conducted in the home cage of test mouse to assess the social behaviour of the animals (Sato, Mizuguchi, & Ikeda, 2013). On test day, cage mate(s) were removed from the home cage of the test mouse and the mouse remained in isolation for 15 minutes. A novel wild type mouse of same strain, same sex and similar weight to the test mouse was then introduced to the home cage of the test mouse. Activity was video recorded (Sony DCR-SX21E) for 10 minutes and the obtained video files were blinded at the end of all experiments. Time spent in active interactions (e.g. close following, sniffing, allogrooming/social grooming and mounting) and number of rearing (lifting the front paws on the air) occasions were coded offline using Observer XT 12 (Noldus, Netherlands). Aggressive behaviours were not considered as social interactions and were not coded. In this test, a reduced social interaction is considered as autistic-like behaviour (Sato et al., 2013), while increased rearing occasions is sign of defensive escapes (Kaplan et al., 2017).
(§2) In Study II, the data were analysed in GraphPad Prism 6 software. Survival curves of Scn1a^+/− vehicle-treated and Scn1a^+/− CBD-treated group were compared using a Mantel-Cox test. […] Data obtained from rotarod, gait, social interaction (active interaction), EPM, sucrose preference, RAM (RME) tests were normally distributed and the differences between the three groups were analysed by one-way ANOVA. […] Parametric data are presented in scattered dot plot in the figures and are expressed as mean±SEM. Non-parametric data are presented in box plot in the figures and are expressed as median, min to max, and interquartile range (IQR). […]

Scn1a^+/− mice [2] = test: Sucrose preference test, depression-like behaviour, Study II; conditions: CBD 100 mg/kg s.c. twice daily
Experimental: as §1
The sucrose preference test was carried out to assess the depression-like behaviour (Serova, Mulhall, & Sabban, 2017). The animals were separately housed during this test. Here, 24 hours before the test, animals were trained to drink from two bottles each containing 2% sucrose. On the first day of test, the animals were provided with a pre-weighed bottle of 2% sucrose and another containing a pre-weighed volume of tap water. The positions of the bottles were swapped after 24 hours to avoid any side preferences. After 48 hours, both bottles were weighed, and sucrose preference was calculated by using the following formula: […]
as §2, with “software.” for “software. Survival curves of Scn1a^+/− vehicle-treated and Scn1a^+/− CBD-treated group were compared using a Mantel-Cox test.”

Scn1a^−/− mice = test: Neonatal welfare scoring (TNW) in Scn1a^−/− mice, Study I
Experimental: 129S-Scn1a^tm1Keammjax heterozygote mice (Jackson Laboratory, USA) were maintained in and bred together to obtain Scn1a^−/− and wild type (WT) animals used for this Study (n=10 per group).
Following genotyping, animals were randomly divided into four groups WT vehicle-treated, WT CBD-treated, Scn1a^−/− vehicle-treated and Scn1a^−/− CBD-treated (n=10/group). They were injected subcutaneously twice daily with either CBD (100 mg/kg) or its vehicle (ethanol:Kolliphor®:0.9% saline=2:1:17) from P8 until P25 or death (whichever was earlier).
A twice daily welfare check was conducted throughout the entire duration of the study. Drug administration was conducted at 0800 h and followed by welfare checks. Conversely, afternoon welfare checks were conducted from 1600 h and followed by drug administration in order to provide the maximum possible time between doses. […]
The parameters used for the welfare assessment were: weight, natural activity (NA; 0-3), reflex/response to touch (RT; 0-3), orbital tightening (OT; 0-2), and body condition score (BC; 1-3). A total neonatal welfare score (TNW; range 0-8) was calculated by adding together scores from NA, RT, and […].
In Study I, the welfare parameters were analysed using SPSS 24 (IBM SPSS Statistics®, UK), whilst survival data were analysed using GraphPad Prism 6 software (GraphPad Software, Inc., USA). […] All the data are expressed as mean±SEM. […]

Scn1a^+/− mice [3] = test: Accelerated rotarod test (motor function), Study II
Experimental: as §1
Fine motor control in animals were assessed by the accelerated rotarod and static beam tests. Animals were habituated to the stationary rotarod for 2 min a day for 2 days. In the accelerated rotarod test each mouse was placed individually on a linearly accelerating rod (4-40 rpm over 5 minutes; LE8500, Letica Scientific Instruments, UK) and average latency to fall from the rod (maximum 300 seconds) was calculated from 3 consecutive trials (2 min interval between trials).
as §2

C=C(C)[C@@H]1CCC(C)=C[C@H]1c1c(O)cc(CCCCC)cc1O [CBD, cannabidiol]
rearing events, Scn1a^+/− CBD-treated versus WT vehicle-treated (Scn1a^+/− mice [1]; p=0.55): No difference
time spent on active interaction, Scn1a^+/− vehicle-treated compared to Scn1a^+/− CBD-treated (Scn1a^+/− mice [1]; statement describes vehicle group relative to CBD group (n=10), p=0.0003, FIG. 4A): significantly less time
number of rearing occasions, Scn1a^+/− vehicle-treated compared to Scn1a^+/− CBD-treated (Scn1a^+/− mice [1]; statement describes vehicle group relative to CBD group, p=0.0003, FIG. 4B): significantly higher number of rearing occasions
sucrose preference, Scn1a^+/− CBD-treated versus WT vehicle-treated (Scn1a^+/− mice [2]; p=0.36): similar
sucrose preference, Scn1a^+/− vehicle-treated compared to Scn1a^+/− CBD-treated (Scn1a^+/− mice [2]; statement describes vehicle group relative to CBD group (n=10), p=0.01, FIG. 4D): reduced preference for sucrose
mean total neonatal welfare (TNW) score (Scn1a^−/− mice; Scn1a^−/− CBD-treated group, CBD 100 mg/kg s.c. twice daily from P8 until P25 or death, n=10, mean±SEM, score range 0-8, vehicle group 3.66±0.04): 2.85±0.04
welfare scores versus vehicle-treated Scn1a^−/− mice (post hoc) (Scn1a^−/− mice; from P12 to P16, CBD 100 mg/kg s.c. twice daily, p<0.01, FIG. 1A): delayed the worsening of welfare scores
time spent on rod, accelerating rotarod, between the groups (Scn1a^+/− mice [3]; WT vehicle, Scn1a^+/− vehicle, Scn1a^+/− CBD (100 mg/kg s.c. twice daily), p=0.44, FIG. 3A): no significant difference
effects on motor function (conclusion) (Scn1a^+/− mice [3]; conclusion from rotarod and static beam tests in Scn1a^+/− mice, chronic CBD 100 mg/kg s.c. twice daily): no detrimental effects on motor function
